Our source for the MIC values is patent US4698352A, “4-oxo-1,4-dihydronicotinic acid derivatives, salts thereof, and antibacterial agents containing the same” (Toyama Chemical Co., Ltd., priority 1982, dated 1987).

Common to all, as to assay: Antibacterial activity (MIC), agar dilution
Common to all, as to assay type: cell-based

The subject of experiment [1] is Aci. antitratus A-6. Conditions: Aci. antitratus A-6, 10^6 cells per ml, 37° C., 20 hours. An excerpt:
(§1) The amount of bacteria inoculated was 10^4 cells per plate (10^6 cells per ml).

Experiment [2] relates to E. coli NIHJ JC-2. The following applies: E. coli NIHJ JC-2, 10^6 cells per ml, 37° C., 20 hours.
From the text: as §1

Experiment [3] concerns E. coli TK-111. The following applies: E. coli TK-111, 10^6 cells per ml, 37° C., 20 hours.
From the text: as §1

The subject of experiment [4] is Ent. cloacae IID977. The following applies: Ent. cloacae IID977, 10^6 cells per ml, 37° C., 20 hours.
From the text: as §1

For experiment [5], the system named is Kl. pneumoniae Y-41. The following applies: 37° C., 20 hours.
From the text: as §1

Experiment [6] deals with Kl. pneumoniae Y-50. The following applies: 10^6 cells per ml, 37° C.
From the text: as §1

Experiment [7] has as its system Pro. mirabilis T-111. The following applies: 10^6 cells per ml, 37° C.
From the text: as §1

The subject of experiment [8] is Pro. morganii T-216. Conditions: 37° C.
From the text: as §1

Experiment [9] relates to Pro. vulgaris GN3027. Conditions: Pro. vulgaris GN3027, 10^6 cells per ml, 37° C., 20 hours.
From the text: as §1

The subject of experiment [10] is Ps. aeruginosa IFO3445. Conditions: Ps. aeruginosa IFO3445, 10^6 cells per ml, 37° C., 20 hours.
From the text: as §1

Experiment [11] has as its system Ps. aeruginosa S-68.
From the text: as §1

The subject of experiment [12] is St. aureus FDA209P. The following applies: St. aureus FDA209P, 10^6 cells per ml, 37° C., 20 hours.
From the text: as §1

Experiment [13] concerns E. coli TK-3*. Conditions: E. coli TK-3, penicillinase-producing, 10^6 cells per ml.
From the text: as §1
(§2) * Penicillinase-producing bacteria

In experiment [14] the test system is Kl. pneumoniae Y-4*. Conditions: Kl. pneumoniae Y-4, penicillinase-producing, 10^6 cells per ml.
From the text: as §1, §2

Experiment [15] deals with Ps. aeruginosa GN3379*. The following applies: Ps. aeruginosa GN3379, penicillinase-producing, 10^6 cells per ml.
From the text: as §1, §2

For experiment [16], the system named is St. aureus F-137*. The following applies: St. aureus F-137, penicillinase-producing, 10^6 cells per ml.
From the text: as §1, §2

The test system of experiment [17] is E. coli GN5482**. Conditions: E. coli GN5482, cephalospolinase-producing, 10^6 cells per ml.
From the text: as §1
(§3) ** Cephalospolinase-producing bacteria

For experiment [18], the system named is Pro. vulgaris GN76**. Conditions: Pro. vulgaris GN76, cephalospolinase-producing, 10^6 cells per ml.
From the text: as §1, §3

Experiment [19] relates to Ps. aeruginosa GN918**. Conditions: Pseudomonas aeruginosa, Ps. aeruginosa GN918, cephalospolinase-producing, 10^6 cells per ml.
From the text: as §1, §3

Setting [20] is: Escherichia coli, NIHJJC2, 20 h, read-out: MIC.
Where [21] appears, read: Escherichia coli, TK111, 20 h, read-out: MIC.
Where [22] appears, read: Enterobacter cloacae, IID977, 20 h, read-out: MIC.
The mark [23] stands for this setting: Klebsiella pneumoniae, Y41, 10^6 cells per ml, read-out: MIC.
[24] abbreviates: Klebsiella pneumoniae, Y50, 20 h, read-out: MIC.
Where [25] appears, read: Proteus vulgaris, GN3027, 20 h, read-out: MIC.
[26] abbreviates: Pseudomonas aeruginosa, read-out: MIC.
Where [27] appears, read: Staphylococcus aureus, FDA209P, 20 h, read-out: MIC.
[28] abbreviates: Escherichia coli, 20 h, read-out: MIC.
Where [29] appears, read: Klebsiella pneumoniae, 20 h, read-out: MIC.
Where [30] appears, read: Pseudomonas aeruginosa, 20 h, read-out: MIC.
Where [31] appears, read: Staphylococcus aureus, 20 h, read-out: MIC.
The mark [32] stands for this setting: Proteus vulgaris, 20 h, read-out: MIC.

≈ marks a conversion by molar mass, not a printed value. Like-named read-outs stand apart in the source and are kept apart here.

Take `O=C(O)c1cn(-c2ccc(O)cc2)c(-c2ccc(-n3cccc3)cc2)cc1=O`: the minimal inhibitory concentration (MIC) in experiment [1] (20 h, read-out: MIC) was 0.1 µg/mL (≈ 0.269 µM); in experiment [2] (setting [20]), 0.1 µg/mL (≈ 0.269 µM); in [3] (setting [21]), at most 0.05 µg/mL; in experiment [4] (setting [22]), 0.78 µg/mL (≈ 2.09 µM); in experiment [5] (setting [23]), 1.56 µg/mL (≈ 4.19 µM); in [6] (setting [24]), 0.39 µg/mL (≈ 1.05 µM). In addition, the minimal inhibitory concentration (MIC) in [7] (Proteus mirabilis, T111, 20 h) worked out at 1.56 µg/mL (≈ 4.19 µM); in experiment [8] (Morganella morganii, T216, 20 h, 10^6 cells per ml), 1.56 µg/mL (≈ 4.19 µM); in experiment [9] (setting [25]) it was 0.2 µg/mL (≈ 0.537 µM); in experiment [10] (setting [26]) it was 3.13 µg/mL (≈ 8.41 µM); in [11] (Pseudomonas aeruginosa, S68, Ps. aeruginosa S-68, 10^6 cells per ml, 37° C., 20 hours, read-out: MIC) it was 3.13 µg/mL (≈ 8.41 µM); in experiment [12] (setting [27]), 0.1 µg/mL (≈ 0.269 µM). The MIC in experiment [13] (setting [28]) is 0.39 µg/mL (≈ 1.05 µM); in experiment [14] (setting [29]), 1.56 µg/mL (≈ 4.19 µM); in experiment [15] (setting [30]), 3.13 µg/mL (≈ 8.41 µM); in experiment [16] (setting [31]) it was 0.1 µg/mL (≈ 0.269 µM); in [17] (setting [28]), at most 0.05 µg/mL; in experiment [18] (setting [32]) it was 0.78 µg/mL (≈ 2.09 µM). This molecule also displayed an MIC in [19] (GN918, 20 h) of 1.56 µg/mL (≈ 4.19 µM).

In the case of `Cc1cc(O)ccc1-n1cc(C(=O)O)c(=O)cc1/C=C/c1ccccc1`, the minimum inhibitory concentration (MIC) was 0.1 µg/mL (≈ 0.288 µM) in [1] (20 h, read-out: MIC); 0.39 µg/mL (≈ 1.12 µM) in [2] (setting [20]); 0.2 µg/mL (≈ 0.576 µM) in [3] (setting [21]); 1.56 µg/mL (≈ 4.49 µM) in experiment [4] (setting [22]); 3.13 µg/mL (≈ 9.01 µM) in experiment [5] (setting [23]); 0.39 µg/mL (≈ 1.12 µM) in [6] (setting [24]). Also, the minimal inhibitory concentration (MIC) in [7] (Proteus mirabilis, T111, 20 h) amounted to 3.13 µg/mL (≈ 9.01 µM); in [8] (Morganella morganii, T216, 10^6 cells per ml, 20 hours, read-out: MIC), 1.56 µg/mL (≈ 4.49 µM); in experiment [9] (setting [25]), 0.1 µg/mL (≈ 0.288 µM); in [10] (setting [26]), 25 µg/mL (≈ 72 µM); in [11] (Pseudomonas aeruginosa, S68, 20 h), 3.13 µg/mL (≈ 9.01 µM); in experiment [12] (setting [27]), 0.1 µg/mL (≈ 0.288 µM). Moreover, the minimum inhibitory concentration (MIC) was 0.39 µg/mL (≈ 1.12 µM) in experiment [13] (setting [28]); 3.13 µg/mL (≈ 9.01 µM) in experiment [14] (setting [29]); 6.25 µg/mL (≈ 18 µM) in experiment [15] (setting [30]); 0.2 µg/mL (≈ 0.576 µM) in [16] (setting [31]); at most 0.05 µg/mL in experiment [17] (setting [28]); 0.39 µg/mL (≈ 1.12 µM) in experiment [18] (setting [32]). The MIC in experiment [19] (20 h, read-out: MIC) stood at 1.56 µg/mL (≈ 4.49 µM).

For the molecule `CC(=O)Oc1ccc(-n2cc(C(=O)OCCN(C)C)c(=O)cc2-c2ccc(N(C)C)cc2)cc1` [drawing 38], the MIC in [1] was 0.39 µg/mL (≈ 0.841 µM); in experiment [2], 0.39 µg/mL (≈ 0.841 µM); in [3], 0.2 µg/mL (≈ 0.431 µM); in experiment [4], 1.56 µg/mL (≈ 3.37 µM); in experiment [5] (10^6 cells per ml), 3.13 µg/mL (≈ 6.75 µM); in [6] (20 hours), 0.78 µg/mL (≈ 1.68 µM). Moreover, the minimum inhibitory concentration (MIC) in experiment [7] (20 hours) was 6.25 µg/mL (≈ 13.5 µM); in [8] (10^6 cells per ml, 20 hours), 3.13 µg/mL (≈ 6.75 µM); in experiment [9], 0.39 µg/mL (≈ 0.841 µM); in [10], 12.5 µg/mL (≈ 27 µM); in [11] (Ps. aeruginosa S-68, 10^6 cells per ml, 37° C., 20 hours) it was 6.25 µg/mL (≈ 13.5 µM); in experiment [12], 0.39 µg/mL (≈ 0.841 µM). The MIC in [13] is 1.56 µg/mL (≈ 3.37 µM); in [14], 6.25 µg/mL (≈ 13.5 µM); in experiment [15], 12.5 µg/mL (≈ 27 µM); in experiment [16], 0.39 µg/mL (≈ 0.841 µM); in [17], at most 0.05 µg/mL; in experiment [18], 1.56 µg/mL (≈ 3.37 µM). Also, inhibition of growth in experiment [19] (GN918, 20 h) (MIC) required 3.13 µg/mL (≈ 6.75 µM).
